Laboratory results from ChEMBL document CHEMBL5316263, “Structure-Based Discovery of Selective Histone Deacetylase 8 Degraders with Potent Anticancer Activity” (J Med Chem, 2023).
Calls of active or inactive are those of the source. The calls are words filed in the database; no cut-off is given here.

Assays:
A549 [1] = assay: Induction of apoptosis in human A549 cells assessed as necrotic cells at 5 uM by annexin V-FITC staining based flow cytometry (reference value: 0%); format: functional
A549 [2] = assay: Antiproliferative activity against human A549 cells assessed as inhibition of cell growth measured after 72 hrs by CCK-8 method; format: functional, cell-based
A549 [3] = assay: Inhibition of colony formation in SiRNA mediated HDAC8 knockdown human A549 cells assessed as decrease in cell proliferation at 2.5 to 10 uM measured after 7 to 10 days with media replenishment along with compound for every 3 days by crystal violet staining based analysis; format: functional; details: dose 2.5-10 µM, time 7-10 day
A549 [4] = assay: Antiproliferative activity against human A549 cells assessed as inhibition of cell growth measured after 72 hrs under irradiation by CCK-8 method; format: functional, cell-based; details: A549, light or radiation study
A549 [5] = assay: Synergistic antiproliferative activity against human A549 cells assessed as combination index measured after 72 hrs under irradiation by CCK-8 method; format: functional
A549 [6] = assay: Induction of apoptosis in human A549 cells assessed as early apoptotic cells at 20 uM incubated for 72 hrs by annexin V-FITC staining based flow cytometry (reference value: 0.099%); format: functional
[7] = biological target: T1, Histone deacetylase 8 (Homo sapiens) (UniProt Q9BY41); assay: Induction of degradation in HDAC8 in human A549 cells incubated for 20 hrs by proteomic analysis; format: cell-based
T1 sequence (whole entry): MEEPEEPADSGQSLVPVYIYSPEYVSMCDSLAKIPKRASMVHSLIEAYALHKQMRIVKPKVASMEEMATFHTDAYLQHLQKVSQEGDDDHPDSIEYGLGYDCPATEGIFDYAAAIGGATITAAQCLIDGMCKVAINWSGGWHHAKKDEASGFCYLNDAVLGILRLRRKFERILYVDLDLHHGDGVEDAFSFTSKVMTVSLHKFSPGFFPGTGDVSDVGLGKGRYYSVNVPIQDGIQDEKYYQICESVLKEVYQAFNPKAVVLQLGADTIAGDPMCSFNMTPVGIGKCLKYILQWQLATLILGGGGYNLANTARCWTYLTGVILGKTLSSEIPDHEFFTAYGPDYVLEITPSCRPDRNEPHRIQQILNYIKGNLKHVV

A549 [8] = assay: Effect on FSTL4 gene in human A549 cells at 10 uM measured after 20 hrs by RNA sequencing analysis; format: functional, cell-based
[9] = biological target: Protein cereblon/Histone deacetylase 1 (Homo sapiens) (UniProt Q13547+Q96SW2); assay: Protac activity at CRBN/HDAC1 in human A549 cells assessed as reduction in HDAC1 protein level at 0.1 to 10 uM by Western blot analysis; format: cell-based; details: dose 0.1-10 µM
Chain of Protein cereblon/Histone deacetylase 1 (Homo sapiens) (Q13547 whole entry, looked up): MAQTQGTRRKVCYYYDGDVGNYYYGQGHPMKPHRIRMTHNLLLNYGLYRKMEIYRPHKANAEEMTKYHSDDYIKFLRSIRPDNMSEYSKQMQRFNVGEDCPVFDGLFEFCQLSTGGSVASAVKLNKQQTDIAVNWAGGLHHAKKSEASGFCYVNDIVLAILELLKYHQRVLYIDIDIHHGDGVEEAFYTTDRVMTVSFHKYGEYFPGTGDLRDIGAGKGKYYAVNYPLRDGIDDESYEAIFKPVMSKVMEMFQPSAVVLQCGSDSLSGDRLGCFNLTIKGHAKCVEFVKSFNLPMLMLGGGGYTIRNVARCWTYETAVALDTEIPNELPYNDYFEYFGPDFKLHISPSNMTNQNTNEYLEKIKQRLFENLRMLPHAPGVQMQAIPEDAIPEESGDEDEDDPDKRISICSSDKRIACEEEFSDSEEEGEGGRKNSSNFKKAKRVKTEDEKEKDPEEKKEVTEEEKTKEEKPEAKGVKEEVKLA
Chain of Protein cereblon/Histone deacetylase 1 (Homo sapiens) (Q96SW2 whole entry, looked up): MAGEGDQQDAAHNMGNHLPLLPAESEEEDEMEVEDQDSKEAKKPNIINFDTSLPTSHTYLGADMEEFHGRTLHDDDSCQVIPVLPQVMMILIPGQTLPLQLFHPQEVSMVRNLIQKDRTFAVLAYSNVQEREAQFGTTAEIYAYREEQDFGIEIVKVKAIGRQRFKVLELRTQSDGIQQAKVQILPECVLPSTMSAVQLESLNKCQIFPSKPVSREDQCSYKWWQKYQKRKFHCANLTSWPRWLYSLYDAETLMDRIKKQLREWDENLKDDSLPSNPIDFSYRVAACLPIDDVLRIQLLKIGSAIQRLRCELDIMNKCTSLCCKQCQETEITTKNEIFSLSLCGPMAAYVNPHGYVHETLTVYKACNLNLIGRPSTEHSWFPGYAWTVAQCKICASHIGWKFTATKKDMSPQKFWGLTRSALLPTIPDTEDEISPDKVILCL

A549 [10] = assay: Effect on ARPIN gene in human A549 cells at 10 uM measured after 20 hrs by RNA sequencing analysis; format: functional, cell-based
A549 [11] = assay: Induction of apoptosis in human A549 cells assessed as early apoptotic cells at 5 uM incubated for 72 hrs by annexin V-FITC staining based flow cytometry (reference value: 0.099%); format: functional
A549 [12] = assay: Induction of apoptosis in human A549 cells assessed as viable cells at 5 uM incubated for 72 hrs by annexin V-FITC staining based flow cytometry (reference value: 99.9%); format: functional; details: read-out: Activity
A549 [13] = assay: Effect on MAPK4 gene in human A549 cells at 10 uM measured after 20 hrs by RNA sequencing analysis; format: functional, cell-based
A549 [14] = assay: Induction of apoptosis in human A549 cells assessed as late apoptotic cells at 5 uM incubated with compound followed by irradiation by annexin V-FITC staining based flow cytometry (reference value: 3.07%); format: functional
A549 [15] = assay: Induction of apoptosis in human A549 cells assessed as late apoptotic cells at 1.25 uM incubated for 72 hrs by annexin V-FITC staining based flow cytometry (reference value: 0.048%); format: functional
HCT-116 = assay: Inhibition of HDAC8 foci formation in human HCT-116 cells measured after 20 hrs by DAPI staining based immunofluorescence assay; format: functional, cell-based; details: dose 0.5-8 µM
[16] = biological target: T2, Protein cereblon/Histone deacetylase 8 (Homo sapiens) (UniProt Q9BY41+Q96SW2); assay: Protac activity at CRBN/HDAC8 in human HeLa cells assessed as reduction in HDAC8 protein level at 0.1 to 10 uM by Western blot analysis; format: cell-based; details: dose 0.1-10 µM
T2 sequence (Q96SW2 whole entry, looked up, one chain of several): as the sequence (Q96SW2 whole entry, looked up) above

A549 [17] = assay: Inhibition of colony formation in human A549 cells assessed as reduction in cell proliferation at 2.5 to 10 uM measured after 7 to 10 days with media replenishment along with compound for every 3 days by crystal violet staining based analysis; format: functional; details: dose 2.5-10 µM, time 7-10 day
[18] = biological target: Protein cereblon/Protein deacetylase HDAC6 (Homo sapiens) (UniProt Q9UBN7+Q96SW2); assay: Protac activity at CRBN/HDAC6 in human A549 cells assessed as reduction in HDAC6 protein level at 0.1 to 10 uM by Western blot analysis; format: cell-based; details: dose 0.1-10 µM
Chain of Protein cereblon/Protein deacetylase HDAC6 (Homo sapiens) (Q96SW2 whole entry, looked up): as above
Chain of Protein cereblon/Protein deacetylase HDAC6 (Homo sapiens) (Q9UBN7 whole entry, looked up): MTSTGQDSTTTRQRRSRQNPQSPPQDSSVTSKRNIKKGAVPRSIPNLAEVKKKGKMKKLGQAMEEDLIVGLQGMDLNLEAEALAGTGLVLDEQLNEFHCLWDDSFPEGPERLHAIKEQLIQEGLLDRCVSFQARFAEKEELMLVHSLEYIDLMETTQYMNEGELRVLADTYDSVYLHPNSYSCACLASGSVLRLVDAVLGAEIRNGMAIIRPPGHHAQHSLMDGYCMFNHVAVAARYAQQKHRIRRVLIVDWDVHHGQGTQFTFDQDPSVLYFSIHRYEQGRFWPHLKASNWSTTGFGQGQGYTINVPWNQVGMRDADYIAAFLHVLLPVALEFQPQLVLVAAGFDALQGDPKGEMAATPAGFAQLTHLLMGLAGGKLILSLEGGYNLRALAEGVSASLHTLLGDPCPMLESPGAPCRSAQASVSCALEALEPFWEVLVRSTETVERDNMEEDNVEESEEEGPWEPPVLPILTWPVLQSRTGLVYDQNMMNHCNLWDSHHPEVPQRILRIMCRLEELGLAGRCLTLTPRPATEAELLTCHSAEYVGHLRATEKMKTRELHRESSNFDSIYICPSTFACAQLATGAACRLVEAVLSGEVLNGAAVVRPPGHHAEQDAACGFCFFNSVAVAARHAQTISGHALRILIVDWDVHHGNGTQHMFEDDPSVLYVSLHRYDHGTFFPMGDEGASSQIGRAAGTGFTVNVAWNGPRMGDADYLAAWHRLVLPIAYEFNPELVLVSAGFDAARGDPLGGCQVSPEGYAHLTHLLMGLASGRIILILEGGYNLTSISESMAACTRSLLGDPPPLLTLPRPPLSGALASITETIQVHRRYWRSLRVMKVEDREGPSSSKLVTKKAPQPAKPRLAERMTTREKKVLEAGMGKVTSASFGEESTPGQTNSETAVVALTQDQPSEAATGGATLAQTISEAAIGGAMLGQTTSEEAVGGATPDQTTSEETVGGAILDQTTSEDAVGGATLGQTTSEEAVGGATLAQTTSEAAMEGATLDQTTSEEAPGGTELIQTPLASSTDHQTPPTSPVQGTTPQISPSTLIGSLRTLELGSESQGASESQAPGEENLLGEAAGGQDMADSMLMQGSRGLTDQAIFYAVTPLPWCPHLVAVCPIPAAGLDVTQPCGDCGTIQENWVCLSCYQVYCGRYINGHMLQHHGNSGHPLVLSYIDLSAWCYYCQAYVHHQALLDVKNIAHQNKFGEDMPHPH

[19] = biological target: Protein cereblon/Histone deacetylase 9 (Homo sapiens) (UniProt Q9UKV0+Q96SW2); assay: Protac activity at CRBN/HDAC9 in human A549 cells assessed as degradation of HDAC9 at 0.1 to 10 uM by Western blot analysis; format: cell-based; details: dose 0.1-10 µM
Chain of Protein cereblon/Histone deacetylase 9 (Homo sapiens) (Q96SW2 whole entry, looked up): as the sequence (Q96SW2 whole entry, looked up) above
Chain of Protein cereblon/Histone deacetylase 9 (Homo sapiens) (Q9UKV0 whole entry, looked up): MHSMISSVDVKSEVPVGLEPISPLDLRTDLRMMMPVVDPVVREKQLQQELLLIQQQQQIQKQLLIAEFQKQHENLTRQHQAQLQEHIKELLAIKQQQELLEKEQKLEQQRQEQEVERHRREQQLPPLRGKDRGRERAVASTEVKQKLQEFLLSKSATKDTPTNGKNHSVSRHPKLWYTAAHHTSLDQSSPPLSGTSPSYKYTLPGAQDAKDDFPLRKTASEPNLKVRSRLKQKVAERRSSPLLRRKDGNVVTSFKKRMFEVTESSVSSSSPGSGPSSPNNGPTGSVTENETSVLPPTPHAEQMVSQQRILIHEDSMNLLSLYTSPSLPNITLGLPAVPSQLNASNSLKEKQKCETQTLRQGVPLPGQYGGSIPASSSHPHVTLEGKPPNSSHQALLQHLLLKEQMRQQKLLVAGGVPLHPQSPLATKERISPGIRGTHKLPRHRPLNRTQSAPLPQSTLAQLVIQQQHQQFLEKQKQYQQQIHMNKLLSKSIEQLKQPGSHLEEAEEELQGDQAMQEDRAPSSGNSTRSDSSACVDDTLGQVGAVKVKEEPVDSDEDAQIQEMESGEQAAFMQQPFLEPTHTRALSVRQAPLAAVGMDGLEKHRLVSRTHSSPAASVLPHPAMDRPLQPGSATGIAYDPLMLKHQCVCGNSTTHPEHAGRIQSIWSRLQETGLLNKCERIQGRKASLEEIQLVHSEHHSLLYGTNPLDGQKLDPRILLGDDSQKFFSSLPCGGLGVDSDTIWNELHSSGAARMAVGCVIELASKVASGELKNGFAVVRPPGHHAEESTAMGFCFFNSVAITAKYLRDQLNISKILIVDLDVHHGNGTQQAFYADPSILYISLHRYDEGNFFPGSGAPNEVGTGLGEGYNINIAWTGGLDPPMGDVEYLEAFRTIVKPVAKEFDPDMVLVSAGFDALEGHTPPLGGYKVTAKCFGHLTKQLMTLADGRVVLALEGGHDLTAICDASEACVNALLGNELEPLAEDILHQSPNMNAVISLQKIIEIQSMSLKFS

[20] = biological target: T2, Protein cereblon/Histone deacetylase 8 (Homo sapiens); assay: Protac activity at CRBN/HDAC8 in human Jurkat cells at 0.1 to 10 uM measured after 20 hrs by Western blot analysis; format: cell-based; details: dose 0.1-10 µM
[21] = biological target: T2, Protein cereblon/Histone deacetylase 8 (Homo sapiens); assay: Protac activity at CRBN/HDAC8 in human A549 cells assessed as decrease in PGM1 expression at 0.1 to 10 uM under glucose deprivation condition by Western blot analysis; format: cell-based; details: dose 0.1-10 µM
A549 [22] = assay: Induction of apoptosis in human A549 cells assessed as downregulation of PCNA level at 1.25 to 20 uM measured after 48 hrs by Western blot analysis; format: functional, cell-based; details: dose 1.25-20 µM
A549 [23] = assay: Induction of apoptosis in human A549 cells assessed as early apoptotic cells at 2.5 uM incubated for 72 hrs by annexin V-FITC staining based flow cytometry (reference value: 0.099%); format: functional
A549 [24] = assay: Induction of apoptosis in human A549 cells assessed as necrotic cells at 5 uM incubated for 72 hrs by annexin V-FITC staining based flow cytometry relative to control; format: functional
A549 [25] = assay: Induction of apoptosis in human A549 cells assessed as late apoptotic cells at 20 uM incubated for 72 hrs by annexin V-FITC staining based flow cytometry (reference value: 0.048%); format: functional
[26] = biological target: T2, Protein cereblon/Histone deacetylase 8 (Homo sapiens); assay: Protac activity at CRBN/HDAC8 in human A549 cells assessed as reduction in HDAC8 protein level by Western blot analysis; format: cell-based; details: dose 0.2-10 µM
A549 [27] = assay: Effect on EREG gene in human A549 cells at 10 uM measured after 20 hrs by RNA sequencing analysis; format: functional, cell-based
A549 [28] = assay: Induction of apoptosis in human A549 cells assessed as late apoptotic cells at 2.5 uM incubated for 72 hrs by annexin V-FITC staining based flow cytometry (reference value: 0.048%); format: functional

Q: With O=C1CCC(N2C(=O)c3cccc(NCc4cn(CCOCCOc5ccc(Cn6ccc7ccc(C(=O)NO)cc76)cc5)nn4)c3C2=O)C(=O)N1 (stereo not given) as the molecule, how does the Activity (A549 [1]) read?
A: 2.37%

Q: And the IC50 (A549 [2]; A549, 72 h)?
A: 9.55 µM

Q: And the Activity (A549 [2]; dose <= 1.5 µM)?
A: Dose-Dependent Effect

Q: What about the inhibition (A549 [3]) of the same molecule?
A: Active

Q: And the IC50 (A549 [4])?
A: 6.04 µM

Q: And the CI (A549 [5])?
A: 0.65

Q: What about the Activity (A549 [6]) of the same molecule?
A: 70.4%

Q: What about the Activity [7] of the same molecule?
A: Active

Q: What about the Activity (A549 [8]) of the same molecule?
A: Active

Q: What about the Activity [9] of the same molecule?
A: inactive

Q: What about the Activity (A549 [10]) of the same molecule?
A: Active

Q: And the Activity (A549 [11])?
A: 21.6%

Q: And the viability at 5 µM (A549 [12])?
A: 54.9%

Q: What about the Activity (A549 [13]) of the same molecule?
A: Active

Q: What about the Activity (A549 [14]) of the same molecule?
A: 0.3%

Q: And the Activity (A549 [15])?
A: 7.4%

Q: And the inhibition (HCT-116)?
A: Dose-Dependent Effect

Q: And the Activity [16]?
A: Active

Q: What about the inhibition (A549 [17]) of the same molecule?
A: Active

Q: And the Activity [18]?
A: inactive

Q: What about the Activity [19] of the same molecule?
A: inactive

Q: And the Activity [20]?
A: inactive

Q: What about the Activity [21] of the same molecule?
A: Active

Q: What about the Activity (A549 [22]) of the same molecule?
A: Active

Q: What about the Activity (A549 [23]) of the same molecule?
A: 22.5%

Q: And the Activity (A549 [24])?
A: 2.49%

Q: And the Activity (A549 [25])?
A: 22.7%

Q: What about the Activity [26] of the same molecule?
A: Dose-Dependent Effect

Q: And the Activity (A549 [27])?
A: Active

Q: And the Activity (A549 [28])?
A: 15.3%
